Test results published in EP0472573B1, “HERBICIDE RESISTANT MAIZE” (ZENECA LIMITED, priority 1989, dated 1990).
Where two headings read alike, the source gives them in different places.

Legend:
Type in all cases: biochemical, Zea mays
[1] = biological target: ALS (acetolactate synthase), Wild type; assay: ALS enzyme assay, wild-type control; conditions: read-out: ID50% (the source's name)
Method: (§1) Seeds of generation M₁BC₁ M₁BC₂ of the nine mutants were sprayed pre-emergence with the herbicide imazethapyr (PURSUIT) (Trade Mark) at a rate of 250 g/ha and grown in a growth chamber (16 hour day, 27°C; 8 hour night, 17°C). Plants were harvested after 11 days.
(§2) Four grams of leaf material were harvested from just above the first leaf axis and ground in a mortar and pestle in 20ml of a solution containing 40mM Tricine (Trade Mark), 10mM EDTA, 5mM pyruvate, 80 »M flavin adenine dinucleotide (FAD), 1mM dithiothreitol (DTT), pH 8, plus 0.8g Polyclar AT. The homogenate was pressed through four layers of muslin and centrifuged at 30,000g for 20 minutes.
(§3) The supernatant was brought to 65% saturation with ammonium sulphate, left to precipitate for 30 minutes and then centrifuged at 30.000g for 20 minutes. The pellet was resuspended in 2.5ml of 40mM Tricine, 10mM EDTA, 5mM pyruvate, 80»M FAD, 25% (v/v) glycerol, 1mM DTT, pH 8, and desalted into 3.5ml of 40mM Tricine, 10mM EDTA, 25% (v/v) glycerol, 1mM DTT, pH 8.
(§4) One hundred microlitres of the enzyme extract was used for each assay. Final reagent concentrations were: 120mM Tricine, 50mM pyruvate, 10mM MgCl₂, […], 93»M thiamine pyrophosphate (TPP), pH 8, in the presence or absence of a herbicide of interest, in a volume of 750 »l. Incubations were carried out at 37°C for 30 minutes. Reactions were stopped with 250»l of 1.84M sulphuric acid, and decarboxylation of the acetolactate carried out at 37°C for 75 minutes, or at 60°C for 30 minutes. Assay blanks had sulphuric acid added prior to the enzyme extract. To the samples and blanks 650»l of α-naphthol in 2.73M NaOH/0.16%(w/v) creatine were added followed by incubation at 37°C for 30 minutes. After centrifugation at 30,000g the optical density of the supernatant was read at 540nm.
(§5) The assay procedure described was carried out on ALS enzyme extracted from each of the nine mutants for the following herbicides: imazethapyr (PURSUIT) imazapyr (ARSENAL) imazaquin (SCEPTER) chlorsulfuron (GLEAN) chlorimuron (CLASSIC) […] (HARMONY) The enzyme activity graphs are given as Figures 3 to 8. In addition, homozygous lines of mutants 1 and 2 which were selected from generation M₁BC₁S₂, were also tested against the same group of herbicides and against representatives of the triazolopyrimidines and phenoxypyrimidines. The chemical structures of these herbicides are shown in Figure 2 of the accompanying drawings.
(§6) From the enzyme assay data it is possible to derive, as a measure of the degree of inhibition the factor ID50% for each mutant and for each herbicide. This factor is indicative of the herbicide concentration which gives 50% inhibition of the ALS activity in comparison with the wild-type control. It is also possible to derive the fold increase in resistance.

[2] = biological target: ALS enzyme extracted from Mutant 1 (heterozygous); assay: ALS enzyme assay, heterozygous Mutant 1; conditions: for IC50: ALS of heterozygous Mutant 1, read-out: ID50% (the source's name); for resistance group, Enzyme Assay: Mutant 1, groups Strong, Intermediate, Weak, Zero; for Fold Increase: fold increase in resistance vs wild type, heterozygous Mutant 1, 30 min
Method: as §1, §2, §3, §4, §5, §6

[3] = biological target: ALS enzyme extracted from Mutant 2 (heterozygous); assay: ALS enzyme assay, heterozygous Mutant 2; conditions: for IC50: ALS of heterozygous Mutant 2, read-out: ID50% (the source's name); for resistance group, Enzyme Assay: Mutant 2, groups Strong, Intermediate, Weak, Zero; for Fold Increase: fold increase in resistance vs wild type, heterozygous Mutant 2, 30 min
Method: as §1, §2, §3, §4, §5, §6

[4] = biological target: ALS enzyme extracted from Mutant 3 (heterozygous); assay: ALS enzyme assay, heterozygous Mutant 3; conditions: for IC50: ALS of heterozygous Mutant 3, read-out: ID50% (the source's name); for resistance group, Enzyme Assay: Mutant 3, groups Strong, Intermediate, Weak, Zero; for Fold Increase: fold increase in resistance vs wild type, heterozygous Mutant 3, 30 min
Method: as §1, §2, §3, §4, §5, §6

[5] = biological target: ALS enzyme extracted from Mutant 5 (heterozygous); assay: ALS enzyme assay, heterozygous Mutant 5; conditions: for IC50: ALS of heterozygous Mutant 5, read-out: ID50% (the source's name); for resistance group, Enzyme Assay: Mutant 5, groups Strong, Intermediate, Weak, Zero; for Fold Increase: fold increase in resistance vs wild type, heterozygous Mutant 5, 30 min
Method: as §1, §2, §3, §4, §5, §6

[6] = biological target: ALS enzyme extracted from Mutant 6 (heterozygous); assay: ALS enzyme assay, heterozygous Mutant 6; conditions: for IC50: ALS of heterozygous Mutant 6, read-out: ID50% (the source's name); for resistance group, Enzyme Assay: Mutant 6, groups Strong, Intermediate, Weak, Zero; for Fold Increase: fold increase in resistance vs wild type, heterozygous Mutant 6, 30 min
Method: as §1, §2, §3, §4, §5, §6

[7] = biological target: ALS enzyme extracted from Mutant 7 (heterozygous); assay: ALS enzyme assay, heterozygous Mutant 7; conditions: for IC50: ALS of heterozygous Mutant 7, read-out: ID50% (the source's name); for resistance group, Enzyme Assay: Mutant 7, groups Strong, Intermediate, Weak, Zero; for Fold Increase: fold increase in resistance vs wild type, heterozygous Mutant 7, 30 min
Method: as §1, §2, §3, §4, §5, §6

[8] = biological target: ALS enzyme extracted from Mutant 8 (heterozygous); assay: ALS enzyme assay, heterozygous Mutant 8; conditions: for IC50: ALS of heterozygous Mutant 8, read-out: ID50% (the source's name); for resistance group, Enzyme Assay: Mutant 8, groups Strong, Intermediate, Weak, Zero; for Fold Increase: fold increase in resistance vs wild type, heterozygous Mutant 8, 30 min
Method: as §1, §2, §3, §4, §5, §6

[9] = biological target: ALS enzyme extracted from Mutant 9 (heterozygous); assay: ALS enzyme assay, heterozygous Mutant 9; conditions: for IC50: ALS of heterozygous Mutant 9, read-out: ID50% (the source's name); for resistance group, Enzyme Assay: Mutant 9, groups Strong, Intermediate, Weak, Zero; for Fold Increase: fold increase in resistance vs wild type, heterozygous Mutant 9, 30 min
Method: as §1, §2, §3, §4, §5, §6

[10] = biological target: ALS enzyme extracted from Mutant 10 (heterozygous); assay: ALS enzyme assay, heterozygous Mutant 10; conditions: for IC50: ALS of heterozygous Mutant 10, read-out: ID50% (the source's name); for resistance group, Enzyme Assay: Mutant 10, groups Strong, Intermediate, Weak, Zero; for Fold Increase: fold increase in resistance vs wild type, heterozygous Mutant 10, 30 min
Method: as §1, §2, §3, §4, §5, §6

[11] = biological target: ALS extracted from leaves of MUTANT 1 (homozygous); assay: ALS enzyme assay, homozygous Mutant 1; conditions: for IC50: ALS of homozygous Mutant 1, read-out: ID50% Mutant; for Fold Increase: fold increase in resistance vs wild type, homozygous Mutant 1
Method: as §2, §3, §4, §5, §6

[12] = biological target: ALS extracted from leaves of MUTANT 2 (homozygous); assay: ALS enzyme assay, homozygous Mutant 2; conditions: for IC50: ALS of homozygous Mutant 2, read-out: ID50% Mutant; for Fold Increase: fold increase in resistance vs wild type, homozygous Mutant 2, 30 min
Method: as §2, §3, §4, §5, §6

Structure (SMILES) | IC50 [2] [µM] | resistance group, Enzyme Assay [2] | Fold Increase [2] | IC50 [3] [µM] | resistance group, Enzyme Assay [3] | Fold Increase [3] | IC50 [4] [µM] | resistance group, Enzyme Assay [4] | Fold Increase [4] | IC50 [5] [µM] | resistance group, Enzyme Assay [5] | Fold Increase [5] | IC50 [6] [µM] | resistance group, Enzyme Assay [6] | Fold Increase [6] | IC50 [7] [µM] | resistance group, Enzyme Assay [7] | Fold Increase [7] | IC50 [8] [µM] | resistance group, Enzyme Assay [8] | other results
CC(C)C1(C)N=C(c2ncccc2C(=O)O)NC1=O (stereo not shown) [Imazapyr, imazapyr] | > 1000 | Strong | >333 | 540 | Strong | 180 | 4 | Weak | 1 | 300 | Strong | 100 | 5 | Intermediate | 2 | 10 | Intermediate | 3 | > 1000 | Strong | IC50 ([1]; herbicide concentration giving 50% inhibition of ALS activity): 3 µM; Fold Increase [8]: >333; IC50 [9]: > 1000 µM; resistance group, Enzyme Assay [9]: Strong; Fold Increase [9]: >333; IC50 [10]: 35 µM; resistance group, Enzyme Assay [10]: Strong; Fold Increase [10]: 12; IC50 [11]: > 1000 µM; Fold Increase ([11]; 30 min): >333; IC50 [12]: 675 µM; Fold Increase [12]: 225
COC(=O)c1sccc1S(=O)(=O)NC(=O)Nc1nc(C)nc(OC)n1 [Thiacarburon, thiacarburon] | 0.055 | Weak | 1 | 0.32 | Intermediate | 8 | 0.085 | Weak | 2 | 0.34 | Intermediate | 8 | 0.045 | Weak | 1 | 0.025 | Zero | 1 | 0.04 | Weak | IC50 [1]: 0.0425 µM; Fold Increase [8]: 1; IC50 [9]: 0.045 µM; resistance group, Enzyme Assay [9]: Weak; Fold Increase [9]: 1; IC50 [10]: 0.39 µM; resistance group, Enzyme Assay [10]: Intermediate; Fold Increase [10]: 9; IC50 [11]: 0.04 µM; Fold Increase [11]: nil; IC50 [12]: 0.36 µM; Fold Increase [12]: 8.5
